Results reported in paper PMC7070906, “A Near-infrared Turn-on Fluorescent Sensor for Sensitive and Specific Detection of Albumin from Urine Samples” (Sensors (Basel, Switzerland), 2020).

Biological target: T1, human serum albumin (HSA) (Homo sapiens, UniProt P02768)
T1 construct: gene ALB
Assay: fluorescence turn-on titration with HSA (one-site fit), Job's plot […], displacement assay
Format: binding

T1 sequence (P02768 25-609): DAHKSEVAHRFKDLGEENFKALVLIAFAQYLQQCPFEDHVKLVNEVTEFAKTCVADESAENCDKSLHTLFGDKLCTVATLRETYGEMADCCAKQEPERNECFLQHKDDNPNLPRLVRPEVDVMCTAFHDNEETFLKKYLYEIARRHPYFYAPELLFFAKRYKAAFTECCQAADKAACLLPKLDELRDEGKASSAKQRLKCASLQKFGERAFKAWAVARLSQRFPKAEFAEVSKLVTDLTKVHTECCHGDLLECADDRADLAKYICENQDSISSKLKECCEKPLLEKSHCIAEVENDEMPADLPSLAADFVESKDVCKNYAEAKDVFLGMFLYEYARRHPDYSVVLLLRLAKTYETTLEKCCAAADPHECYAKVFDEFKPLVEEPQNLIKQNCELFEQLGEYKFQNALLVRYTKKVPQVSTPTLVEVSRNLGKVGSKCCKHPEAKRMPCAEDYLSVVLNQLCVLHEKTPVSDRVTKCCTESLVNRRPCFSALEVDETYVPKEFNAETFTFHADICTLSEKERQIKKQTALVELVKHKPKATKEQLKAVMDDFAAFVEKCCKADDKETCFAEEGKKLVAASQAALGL

CN(C)c1ccc(/C=C/C=C/C=C(\C#N)C(=O)c2cccc(Cl)c2)s1 [compound 5, (2E,4E,6E)-2-(3-chlorobenzoyl)-7-(5-(dimethylamino)thiophen-2-yl)hepta-2,4,6-trienenitrile]
Kd: 15.4 ± 3.3 µM
